Tests used:
[1] = system: quinone reductase (QR); assay: Induction of quinone reductase (QR) in mouse liver and mammary glands (Table 3); assay type: in vivo
[2] = system: cytochrome P4501A1; assay: Inhibition of TCDD-induced EROD activity; assay type: biochemical
[3] = target: T1, cytochrome P4501A1 (Rattus norvegicus, UniProt P00185); assay: biochemical
T1 sequence (P00185 1-524): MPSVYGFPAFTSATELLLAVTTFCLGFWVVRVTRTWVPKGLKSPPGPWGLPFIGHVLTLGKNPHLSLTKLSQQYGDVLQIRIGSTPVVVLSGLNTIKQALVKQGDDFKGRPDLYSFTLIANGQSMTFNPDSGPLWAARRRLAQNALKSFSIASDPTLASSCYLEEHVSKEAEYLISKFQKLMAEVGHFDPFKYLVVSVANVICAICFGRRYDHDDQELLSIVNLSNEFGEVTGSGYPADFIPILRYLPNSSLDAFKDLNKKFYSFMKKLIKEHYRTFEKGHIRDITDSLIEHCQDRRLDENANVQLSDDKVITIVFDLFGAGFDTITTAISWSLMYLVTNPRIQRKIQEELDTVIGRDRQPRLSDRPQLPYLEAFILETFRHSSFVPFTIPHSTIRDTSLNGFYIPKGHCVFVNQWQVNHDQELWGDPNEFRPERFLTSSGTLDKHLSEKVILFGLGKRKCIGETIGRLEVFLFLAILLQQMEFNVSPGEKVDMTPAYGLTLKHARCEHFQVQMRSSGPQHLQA
Procedure: Inhibition of DMBA-induced Cytochrome P4501A1 Activity. Female Sprague Dawley rats (43 days of age) were treated with DMBA (i.g.), and liver microsomes were isolated through differential centrifugation. Cytochrome P4501A1 activity was monitored by assessing EROD activity. Briefly, 200 μl of microsomal protein (2 mg/ml) were added to a reaction mixture containing 640 μl of 0.05 M Tris-HCl buffer (pH 7.5), 100 μl of BSA (10 mg/ml in Tris buffer), 20 μl of 0.25 M MgCl2, 40 μl of cofactor solution (0.3282 g of NADP and 1.417 g of glucose 6-phosphate in 40 ml of 1.15% KCl), 2.5 units of glucose 6-phosphate dehydrogenase, 10 μl of substrate (1 mg of ethoxyresorufin in 10 ml of methanol) and 10 μl of various concentrations of 4'-BF in DMSO (α-naphthoflavone as positive control; DMSO as negative control). After incubating at 37° C. for 4 min, the reactions were terminated by the addition of 2 ml of methanol. Samples were then centrifuged for 20 min at 2,000×g. and 200 μl of the supernatant fractions were transferred to 96-well plates and read on a spectrofluorimeter (500 nm excitation and 585 nm emission). Assays were conducted in triplicate and the percent of inhibition was calculated as: [1-(sample A-blank)/(DMSO A-blank)]×100.

[4] = system: H4IIE rat hepatoma cells; assay: Toxicity in H4IIE rat hepatoma cells; assay type: cell-based
[5] = system: pDTD-1097CAT construct (QR gene 5'-region), HepG2 cells; assay: CAT expression in HepG2 cells transfected with pDTD-1097CAT; assay type: cell-based, human cells; rat QR gene; settings: 10 μM, 48 h; p<0.0001
Procedure: Transcient Transfection Gene Expression Assay. Cultured HepG2 human hepatoma cells were transfected with three plasmid constructs (PDTD-1697CAT, XRE-CAT, ARE-CAT) containing various portions of the 5'-region of the QR gene fused to the CAT gene using the calcium phosphate precipitation method (J. Sambrook et al., Molecular cloning: A Laboratory Handbook, Ed. Chris Nolan, CHS Laboratory Press, 1989). After 4 hours of transfection, the cells were treated with 10% glycerol for 3 minutes and rinsed with PBS and switched to MEM, containing 100 units/ml penicillin G sodium, 100 units/ml streptomycin sulfate, nonessential amino acids, and 1 mM sodium pyruvate (Life Technologies Inc.) supplemented with 10% fetal bovine serum for 12-16 hours recovery. Then, test agents were added to the cells. After 48 hours of treatment with the test agents, cells were harvested with lysis buffer (Boehringer Mannheim Biochemical) and CAT protein expressions were assessed using a CAT ELISA kit (Boehringer Mannheim Biochemical). […] All data were expressed as mean +/- SD. […]
In particular, FIG. 1 illustrates quantitation of CAT expression in HepG2 cells transfected with QR-CAT constructs. […] CAT expression (ng CAT/mg protein) was determined using a CAT ELISA, and the ratio of CAT expression between treated and control cells was calculated (ratio=treated/control).

O=c1cc(-c2ccc(Br)cc2)oc2ccccc12 [4'-Bromoflavone]
QR (Treated/Control), Liver ([1]; liver): 5.27 | QR (Treated/Control), Mammary Gland ([1]; mammary gland): 2.66 | inhibition of TCDD-induced EROD activity [2]: significantly inhibit | IC50 [3]: 860 nM | toxicity in H4IIE cells [4]: no observed toxicity | CAT expression, pDTD-1097CAT [5]: significantly (p<0.0001) induced

Reference: patent US6046231A, “Use of 4'-bromoflavone in a cancer chemopreventative composition and method” (The Board of Trustees of the University of Illinois, priority 1999, dated 2000)
